{"source": "patent US20100168085A1", "about": "“Dopamine and agonists and antagonists thereof for modulation of suppressive activity of CD4+CD25+ regulatory T cells” (YESA RESEARCH AND DEVELOPMENT CO. LTD. at the Weizmann …, priority 2003, published 2010)", "key": {"[1]": {"tested_on": "phospho-ERK1/2 in Treg and Teff", "experiment": "ERK1/2 phosphorylation (intracellular FACS staining, Western blot)", "assay_type": "cell-based, mouse", "experimental": "(ix) FACS analysis of intracellular labeling of phosphorylated form of ERK. T-cell subpopulations were fixed in 1.5% formaldehyde for 10 min at room temperature, washed, resuspended with vortexing in cold 100% methanol, and incubated for 1 h at 4° C. The cells were then washed with PBS containing 1% bovine serum albumin (BSA) and resuspended in 100 μL of PBS/BSA, and 12.5 μL of anti-phosphoERK1 & 2 (BioSource) was added for 20 min at room temperature. The cells were then washed, resuspended in PBS, and analyzed by FACSCalibur (Becton-Dickinson). As a negative control we incubated the phospho-peptide for 20 min with its antibody and then added the mixture to T cells.\n(xix) Western blotting. Cells were stimulated for 20 min with anti-CD3 and anti-CD28 antibodies in the presence or absence of dopamine or SKF-38393. Cell lysates were prepared using RIPA lysis buffer (50 mM Tris, pH 8; 0.1% SDS; 0.5% deoxycholate; 1% NP40; 500 mM NaCl; 10 mM MgCl2) and were then kept on ice for 10 min before being vortexed and centrifuged. Supernatants were collected and 5× sample buffer (containing 25 mM Tris pH 6.8, 2% sodium dodecyl sulfate (SDS), 10% glycerol, 0.1% bromophenol blue, 0.5 M β-mercaptoethanol) was added prior to boiling. Cell extracts were separated by SDS-PAGE (10% polyacrylamide), and blotted onto nitrocellulose. Activated ERK1/2 was detected by probing blots with a 1:30,000 dilution of monoclonal antibody. Total ERK protein was detected by using a 1:10,000 dilution of a polyclonal rabbit antibody. The blots were developed by horseradish peroxidase-conjugated anti-mouse or anti-rabbit Fab and ECL (Amersham). Signals were quantified using NIH Image 1.62.\nTreg were activated for 20 min in the presence or absence of dopamine (10^−5 M), and were then subjected to intracellular phosphoprotein staining (Perez and Nolan 2002) and analyzed by flow cytometry. […] As a measure of the background nonspecific staining of the phosphorylated ERK we used a specific peptide of phospho-ERK, which competes for binding of the antibody. The intracellular staining procedure for phospho-ERK detection by FACS was validated by the use of Teff incubated with 20 μM phorbol 12-myristate 13-acetate (PMA), known to stimulate the activity of protein kinase C (PKC) (data not shown)."}, "Foxp3 expression in Treg": {"tested_on": "Foxp3 expression in Treg", "details": "2 h exposure, analysed after 30 min or 24 h", "from_the_text": "(§1) (xx) Polymerase chain reaction (PCR). Total RNA was purified with the RNeasy Mini Kit (Qiagen, Germantown, Md.) and transcribed into cDNA using poly dT primers. For PCR the following primers were used: […]"}, "CCR-4 mRNA in Treg": {"tested_on": "CCR-4 mRNA in Treg", "details": "2 h with dopamine", "from_the_text": "as §1"}, "[2]": {"tested_on": "mice, glutamate-induced retinal ganglion cell death", "experiment": "Intravitreal glutamate toxicity, retinal ganglion cell survival", "assay_type": "in vivo, mouse", "protocol": "(iii) Intravitreal glutamate injection. The right eyes of anesthetized mice were punctured with a 27-gauge needle in the upper part of the sclera, and a 10-μL Hamilton syringe with a 30-gauge needle was inserted as far as the vitreal body. A total volume of 1 μl, of L-glutamate (400 nmol) dissolved in saline was injected into the eye.\n(iv) Retrograde labeling of retinal ganglion cells. Mice were anesthetized and placed in a stereotactic device. The skull was exposed and kept dry and clean. The bregma was identified and marked. The designated point of injection was at a depth of 2 mm from the brain surface, 2.92 mm behind the bregma in the anteroposterior axis and 0.5 mm lateral to the midline. A window was drilled in the scalp above the designated coordinates in the right and left hemispheres. The neurotracer dye FluoroGold (5% solution in saline; Fluorochrome, Denver, Colo.) was applied (1 μL, at a rate of 0.5 μL/min in each hemisphere) using a Hamilton syringe, and the skin over the wound was sutured.\n(xxi) Assessment of mouse retinal ganglion cell survival. Mice were given a lethal dose of pentobarbitone (170 mg/kg). Their eyes were enucleated and the retinas were detached and prepared as flattened whole mounts in 4% paraformaldehyde solution. Labeled cells from 4-6 selected fields of identical size (0.7 mm^2) were counted. The selected fields were located at approximately the same distance from the optic disk (0.3 mm) to overcome the variation in RGC density as a function of distance from the optic disk. Fields were counted under the fluorescence microscope (magnification ×800) by observers blinded to the identity of the retinas. The average number of RGCs per field in each retina was calculated.\nInjection of glutamate into the eyes of adult mice causes retinal ganglion cell death that is measurable 1 week after the injection (Mizrahi et al., 2002; Schori et al., 2001a; Katayama et al., 1990). We injected Balb/c mice intraperitoneally (i.p.) with the dopamine, or its specific D1-type agonist SKF-38393 (3.3 mg/kg), or its specific D1-type antagonist SCH-23390 (3 mg/kg), immediately after their exposure to glutamate toxicity. We also injected SCID Balb/c mice with SKF-38393 (3.3 mg/kg) immediately after glutamate intoxication.\nImmediately after glutamate intoxication mice were systemically injected with the indicated drugs. Neuronal survival was determined ten days later (see Materials and Methods). The results are expressed by changes (in percentage) in neuronal survival in treated mice relative to untreated mice. Each value represents a mean±SEM of a group of at least 5 animals, and each experiment was performed at least twice, independently. Asterisks (***, P<0.001; **, P<0.01) indicate statistical significance of the presented data from a single experiment using a Student's T-test statistical analysis. (NT—not tested; ns—no statistical significance)."}, "[3]": {"tested_on": "TGF-β1 transcripts in Treg", "details": "after dopamine treatment", "from_the_text": "as §1\nBecause the suppressive effect of Treg on Teff is partly due to transforming growth factor (TGF)-β1 (Nakamura et al., 2001), we measured whether exposure of Treg to dopamine affects the level of TGF-β1 expression."}, "IL-10 production by Treg": {"tested_on": "IL-10 production by Treg", "details": "10^−5 M; 24 h, 48 h and 72 h", "protocol": "(x) Enzyme-linked immunosorbent assay. Treg or Teff (0.5×10^6 cells/ml) were cultured for 48 h in the presence of anti-CD3 and anti-CD28. After 48 h the cells were centrifuged and their supernatants were collected and sampled. Concentrations of IL-2 in the samples were determined by the use of sandwich enzyme-linked immunosorbent assay (ELISA) kits (R&D Systems, Minneapolis, Minn.). For detection of secreted IL-10 cells were centrifuged every 24 h and replaced with a fresh medium. Supernatants obtained from cells after 24, 48 and 72 h in culture were subjected to ELISA kit (Diaclone Research, Fleming, France). The plates were developed using a 3,3′,5,5′-tetramethyl-benzidine liquid substrate system (Sigma, St. Louis, Mo.). The reaction was stopped by adding 1M H3PO4. Results for each experiment were calculated as the amount of secreted cytokine per 1 ml of sample, after subtraction of the background levels of the medium."}, "[4]": {"tested_on": "migration of T cells towards SDF-1", "experimental": "(§2) The migration of T cells across polycarbonate filters (pore size 5 μm, diameter 6.5 mm) towards SDF-1 and MDC (CCL22) was assayed in 24-well Transwell chambers (Costar, Corning, Corning, N.Y.). T lymphocytes (1.67×10^6 cells/mL) were suspended in RPMI/0.1% BSA, and 150 μL of the cell suspension was added to the upper chamber after incubation with or without dopamine (90 min, 37° C.). Chemokines were added to the lower chamber at concentrations of 1 μg/mL SDF-1 (CytoLab, Israel) and 0.25 μg/mL MDC (R&D Systems). The plates were incubated for 90 min at 37° C. in 9.5% CO2. […] The numbers of migrating T cells were measured by flow cytometer acquisition for a fixed time (60 s). To calculate specific migration, the number of cells in each subpopulation in the absence of chemokine was subtracted from the number in the corresponding cell subpopulation that migrated in the presence of chemokines. The number of migrating CD4^+CD25^+ T cells was calculated as a percentage of the total T cell population before migration. For migration of purified population we used a similar protocol.\nWe also examined the migration of a mixed T cell population towards SDF-1."}, "[5]": {"tested_on": "migration of Treg towards MDC (CCL22)", "experimental": "as §2\nWe therefore examined whether exposure to dopamine would also affect Treg migration. For this experiment we used a normal population of CD4^+ T cells, of which Treg (CD4^+CD25^+) accounts for approximately 11% (FIG. 4e).\nTo examine the direct effect of dopamine on the migration of Treg, we assayed the effect of dopamine on the migration of purified Treg towards MDC. The migratory Treg were stained for CD4 to ensure that cell debris and aggregates would not be counted among them."}}, "note": "Marks after values point to notes of the source that are not given here."}
{"smiles": "NCCc1ccc(O)c(O)c1", "note": "[dopamine, 3,4-dihydroxyphenethylamine]", "values": [{"measurement": "Phosphorylated ERK in activated Treg, flow cytometry", "setting": "[1]; 10^−5 M, activation 20 min", "result": "Significantly less phosphorylated ERK"}, {"measurement": "Phospho-ERK1/2 levels in Teff, Western blot", "setting": "[1]; activation 20 min", "result": "did not cause a significant change"}, {"measurement": "Phospho-ERK1/2 in activated Treg, Western blot", "setting": "[1]; activation with anti-CD3 and anti-CD28 for 20 min", "result": "down-regulated"}, {"measurement": "Foxp3 expression in Treg", "setting": "Foxp3 expression in Treg", "result": "no significant change"}, {"measurement": "Expression of CCR-4 in Treg", "setting": "CCR-4 mRNA in Treg", "result": "decreased"}, {"measurement": "Increase in neuronal survival relative to PBS-treated glutamate-injected controls", "setting": "[2]; Balb/c, single i.p. injection, dopamine 0.4 mg/kg, SKF-38393 3.3 mg/kg", "result": "18±2.5", "unit": "%"}, {"measurement": "Changes in neuronal survival in treated relative to untreated mice (mean±SEM)", "setting": "[2]; Wild type mice, systemic injection immediately after glutamate intoxication", "result": "18 ± 2.5*** percentage"}, {"measurement": "Transcripts encoding TGF-β1 in Treg", "setting": "[3]", "result": "decreased"}, {"measurement": "Amount of IL-10 in media of Treg", "setting": "IL-10 production by Treg", "result": "significant decrease"}, {"measurement": "Migration pattern of mixed T cell population towards SDF-1", "setting": "[4]", "result": "did not alter this pattern"}, {"measurement": "Migration of purified Treg towards MDC", "setting": "[5]", "result": "almost completely abolished"}, {"measurement": "Treg (CD4+CD25+) share of CD4+ cells migrating towards MDC", "setting": "[5]; after exposure of CD4+ population to dopamine, 17% without dopamine", "result": "approximately 10%"}, {"measurement": "Migration of Teff", "setting": "[5]; data not shown", "result": "no effect"}]}
